Experimental data taken from patent publication US6710048B2, “Pyrazine derivatives as modulators of tyrosine kinases” (Ortho-McNeil Pharmaceutical, Inc., priority 2000, dated 2004).
Read-outs that look alike come from different tables or passages of the source.

Assays:
[1] = system: HeLa cervical adenocarcinoma; test: Cell proliferation assay (14C-thymidine incorporation), HeLa; type: cell-based; conditions: Homo sapiens, read-out: Inhibition of cell proliferation IC50
Method: (§1) The ability of a test compound to inhibit the proliferation of cell growth was determined by measuring incorporation of ^14C-labelled thymidine into newly synthesized DNA within the cells. This method was used on cell lines derived from carcinomas originating from several tissues such as HeLa cervical adenocarcinoma (American Type Culture Collection (ATCC), Virginia, Cat. #CCL-2), A375 malignant melanoma (ATCC CRL-1619), SK-OV-3 ovarian adenocarcinoma (ATCC HTB-77) HCT-116 colon carcinoma (CCL-247) and PC-3 prostate adenocarcinoma (ATCC CRL-1435). The method was also used on primary cells such as HUVEC endothelial cells (ATCC CRL-1730). In this way the effect of a compound on cell growth of cells with many different phenotypes can be determined. Cells were trypsinized and counted and 3000-8000 cells were added to each well of a 96-well CytoStar tissue culture treated scintillating microplate (Amersham #RPNQ0160) in complete medium in a volume of 100 μl. Cells were incubated for 24 hours in complete medium at 37° C. in an atmosphere containing 5% CO2.
(§2) Next, 1 μl of test compound in 100% DMSO was added to the wells of the plate. DMSO only was added to control wells. Cells were incubated for 24 more hours in complete medium at 37° C. in an atmosphere containing 5% CO2. Methyl ^14C-thymidine 56 mCi/mmol (NEN #NEC568 or Amersham #CFA532) was diluted in complete medium and 0.2 μCi/well was added to each well of the CytoStar plate in a volume of 20 μl. The plate was incubated for 24 hours at 37° C. plus 5% CO2 in drug plus ^14C-thymidine. The contents of the plate were discarded into a ^14C radioactive waste container by inverting the plate and the plate was washed twice with 200 μl PBS. 200 μl of PBS is then added to each well. The top of the plate was sealed with a transparent plate sealer and a white plate backing sealer (Packard #6005199) was applied to the bottom of the plate. The degree of Methyl ^14C-thymidine incorporation was quantified on a Packard Top Count.

[2] = system: SK-OV-3 ovarian adenocarcinoma; test: Cell proliferation assay (14C-thymidine incorporation), SK-OV-3; type: cell-based; conditions: Homo sapiens, read-out: Inhibition of cell proliferation IC50
Method: as §1, §2

HCT-116 colon carcinoma = test: Cell proliferation assay (14C-thymidine incorporation), HCT-116; type: cell-based; conditions: Homo sapiens, read-out: Inhibition of cell proliferation IC50
Method: as §1, §2

MDA-MB-231 = test: Cell proliferation assay (14C-thymidine incorporation), MDA-MB-231; type: cell-based; conditions: Homo sapiens, read-out: Inhibition of cell proliferation IC50
Method: as §1, §2

[3] = system: PC-3 prostate adenocarcinoma; test: Cell proliferation assay (14C-thymidine incorporation), PC-3; type: cell-based; conditions: Homo sapiens, read-out: Inhibition of cell proliferation IC50
Method: as §1, §2

[4] = target: T1, VEGF-R (vascular endothelial growth factor receptor-2) (Rattus norvegicus, UniProt O08775); test: VEGF-R screening assay (33P FlashPlate kinase assay); type: biochemical
T1 construct: polyhistidine (6xHis) (N)
T1 sequence (O08775 786-1343): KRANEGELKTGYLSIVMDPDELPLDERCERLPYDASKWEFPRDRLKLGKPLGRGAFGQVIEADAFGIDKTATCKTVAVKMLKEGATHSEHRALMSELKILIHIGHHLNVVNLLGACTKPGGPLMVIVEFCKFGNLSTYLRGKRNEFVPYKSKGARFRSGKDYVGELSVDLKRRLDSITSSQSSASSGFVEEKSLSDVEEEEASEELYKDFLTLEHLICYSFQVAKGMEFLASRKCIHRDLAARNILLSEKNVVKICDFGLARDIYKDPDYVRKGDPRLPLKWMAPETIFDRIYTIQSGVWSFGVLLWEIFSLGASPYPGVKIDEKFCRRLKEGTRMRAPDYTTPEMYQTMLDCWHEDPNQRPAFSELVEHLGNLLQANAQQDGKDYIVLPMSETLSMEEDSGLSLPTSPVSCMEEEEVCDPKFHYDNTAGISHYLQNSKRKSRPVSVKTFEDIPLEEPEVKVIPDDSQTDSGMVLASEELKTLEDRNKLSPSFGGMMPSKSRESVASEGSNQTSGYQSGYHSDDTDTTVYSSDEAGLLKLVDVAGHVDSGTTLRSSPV
Method: A kinase reaction mixture was prepared containing 50 mM Tris-HCl pH=8, 10 mM MgCl2, 0.1 mM NAPO4, 1 mM DTT, 10 μM ATP, 0.025 μM biotinylated peptide substrate and 0.8 μCuries per well ^33P-γ-ATP [2000-3000 Ci/mmol]. 70 μl of the kinase reaction mixture was dispensed into the well of a streptavidin coated FlashPlate™ (Cat. # SMP103, NEN, Boston, Mass.). Then 1 μl of test compound stock in 100% DMSO was added to the wells resulting in a final concentration of 1% DMSO in the reaction with a 100 μl final reaction volume. Next, soluble rat tyrosine kinase containing an N-terminal 6×HIS tag was diluted in 50 mM Tris-HCl pH=8.0, 0.1% BSA at a concentration of 5 ng per microliter and 30 μl (150 ng enzyme per test well) was added to each well to initiate the reaction. The reaction was incubated for one hour at 30° C. At the end of the 1-hour incubation, the reaction was terminated by aspirating the reaction mixture from the plate and washing the wells twice with PBS containing 100 mM EDTA. The PLCI biotinylated peptide substrate becomes immobilized on the Flashplate™ and the incorporation of ^33P-γ-ATP was measured by reading the plate on a scintillation counter. Inhibition of the enzymatic activity of the VEGF-R was measured by observing a reduced amount of ^33P-γ-ATP incorporated into the immobilized peptide.
(§3) The term n.d. means not tested.
(§4) Assays to test compound inhibition of other kinases were preformed using methods that measure the amount of phosphorylation of a biotinylated peptide substrate. Biotinylated peptide substrates were selected from the literature as appropriate for the enzyme being evaluated. The general procedure used to assay for kinase activity is as follows: A kinase reaction mix was prepared in 50 mM Tris-HCl pH=8, 10 mM MgCl2, 0.1 mM NaVO4, 1 mM DTT, 5-10 μM ATP, 0.25-1 μM biotinylated peptide substrate, 0.2-0.8 μCuries per well ^33P-γ-ATP [2000-3000 Ci/mmol]. Assay conditions vary slightly for each protein kinase, for example, insulin receptor kinase requires 10 mM MnCl2 for activity and Calmodulin-dependent protein kinase requires calmodulin and 2 mM CaCl2. The reaction mixture was dispensed into the wells of a streptavidin coated Flashplate and 1 μl drug stock in 100% DMSO was added to a 100 μl reaction volume resulting in a final concentration of 1% DMSO in the reaction. Enzyme was diluted in 50 mM Tris-HCl pH=8.0, 0.1% BSA and added to each well. The reaction was incubated for one hour at 30° C. in the presence of compound. After one hour the reaction mix was aspirated from the plate and the plate was washed with PBS containing 100 mM EDTA. The plate was read on a scintillation counter to determine ^33P-γ-ATP incorporated into the immobilized peptide. Test compounds were assayed in duplicate at 8 concentrations [100 tM, 10 μM, 1 μM, 100 nM, 10 nM, 1 nM, 100 μM, 10 μM]. A maximum and minimum signal for the assay was determined on each plate. The IC50 was calculated from the dose response curve of the percent inhibition of the maximum signal in the assay according to the formula [max signal−background/test compound signal−background (100)=% inhibition] by graphing the percent inhibition against the log concentration of test compound. Known inhibitor compounds appropriate for the kinase being assayed were also included on each plate.
VEGF-R (vascular endothelial growth factor receptor-2) is a fusion protein containing a polyhistidine tag at the N-terminus followed by amino acids 786-1343 of the rat VEGF-R2 kinase domain (GenBank Accession #U93306). CDK1 (cyclin dependent kinase 1) is isolated from insect cells expressing both the human CDK1 catalytic subunit and its positive regulatory subunit cyclin B (New England Biolabs, Beverly, Mass., Cat. #6020). CDK4 (cyclin dependent kinase 4) contains amino acids 769 to 921 of the mouse […] protein found in the GST-retinoblastoma protein construct (Santa Cruz Biotechnology, Santa Cruz, Calif.; Cat. #SC-4112). […]

[5] = target: T2, CDK1 (cyclin dependent kinase 1) / cyclin B (Homo sapiens, UniProt P06493); test: CDK1 kinase assay; type: biochemical
T2 construct: purchased New England Biolabs 6020; host or cells: insect cells
T2 sequence (P06493 whole entry): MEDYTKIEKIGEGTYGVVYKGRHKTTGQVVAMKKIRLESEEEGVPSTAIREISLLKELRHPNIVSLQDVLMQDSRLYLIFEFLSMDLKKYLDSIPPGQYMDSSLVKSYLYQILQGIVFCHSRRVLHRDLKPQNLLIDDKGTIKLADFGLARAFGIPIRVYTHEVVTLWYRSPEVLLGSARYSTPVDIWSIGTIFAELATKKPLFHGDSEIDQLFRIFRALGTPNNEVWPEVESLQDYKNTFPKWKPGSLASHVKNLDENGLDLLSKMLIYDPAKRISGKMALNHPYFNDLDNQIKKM
T2 sequence (P14635 whole entry partner): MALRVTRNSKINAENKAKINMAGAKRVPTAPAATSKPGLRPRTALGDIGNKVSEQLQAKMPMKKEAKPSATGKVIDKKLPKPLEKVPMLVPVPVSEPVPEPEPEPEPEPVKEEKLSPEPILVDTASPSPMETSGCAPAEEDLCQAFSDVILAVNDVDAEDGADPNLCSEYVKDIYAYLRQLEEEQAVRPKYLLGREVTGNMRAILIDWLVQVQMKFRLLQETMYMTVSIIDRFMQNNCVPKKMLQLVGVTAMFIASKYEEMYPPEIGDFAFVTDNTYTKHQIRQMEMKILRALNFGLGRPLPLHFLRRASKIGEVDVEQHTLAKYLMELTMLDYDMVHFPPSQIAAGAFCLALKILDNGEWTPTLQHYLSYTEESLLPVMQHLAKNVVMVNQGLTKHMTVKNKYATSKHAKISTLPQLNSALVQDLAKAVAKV
Method: as §3
as §4, with “Test compounds were assayed in duplicate at 8 concentrations [100 tM, 10 μM, 1 μM, 100 nM, 10 nM, 1 nM, 100 μM, 10 μM].” left out
VEGF-R (vascular endothelial growth factor receptor-2) is a fusion protein containing a polyhistidine tag at the N-terminus followed by amino acids 786-1343 of the rat VEGF-R2 kinase domain (GenBank Accession #U93306). CDK1 (cyclin dependent kinase 1) is isolated from insect cells expressing both the human CDK1 catalytic subunit and its positive regulatory subunit cyclin B (New England Biolabs, Beverly, Mass., Cat. #6020). CDK4 (cyclin dependent kinase 4) contains amino acids 769 to 921 of the mouse […] protein found in the GST-retinoblastoma protein construct (Santa Cruz Biotechnology, Santa Cruz, Calif.; Cat. #SC-4112). Insulin Receptor Kinase consists of residues 941-1313 of the cytoplasmic domain of the beta-subunit of the human insulin receptor (BIOMOL, Plymouth Meeting, Pa., Cat. #SE-195). Protein Kinase A is the catalytic subunit of cAMP dependent protein kinase-A purified from bovine heart (Upstate Biotech, Lake Placid, N.Y., Cat#14-114). PKC (protein kinase-C) is the gamma or beta isoform of the human protein produced in insect cells (BIOMOL, Plymouth Meeting, Pa., Cat. #SE-143). Casein Kinase 1 is a truncation at amino acid 318 of the C-terminal portion of the rat CK1 delta isoform produced in E.coli (New England Biolabs, Beverly, Mass., Cat. #6030). Casein Kinase 2 includes the alpha and beta subunits of the human CK2 protein produced in E.coli (New England Biolabs, Beverly, Mass., Cat. #6010). Calmodulin Kinase (calmodulin-dependent protein kinase 2) is a truncated version of the alpha subunit of the rat protein produced in insect cells (New England Biolabs, Beverly, Mass., Cat. #6060). Glycogen Synthase Kinase-3 is the beta isoform of the rabbit enzyme produced in E. coli (New England Biolabs, Beverly, Mass., Cat. #6040). MAP Kinase is the rat ERK-2 isoform containing a polyhistidine tag at the N-terminus produced in E. coli. and activated by phosphorylation with MEK1 prior to purification (BIOMOL, Plymouth Meeting, Pa., Cat. #SE-137). EGFR (epidermal growth factor receptor) is purified from human A431 cell membranes (Sigma, St. Louis, Mo., Cat.# E3641). […]

FGF-R2 = FGF-R2 (Homo sapiens, UniProt P21802); test: FGF-R2 kinase selectivity assay; type: biochemical; conditions: Table 4 kinase selectivity; read-out: IC50, Assay 15 FGF-R2
FGF-R2, sequence (P21802 22-821, species assumed): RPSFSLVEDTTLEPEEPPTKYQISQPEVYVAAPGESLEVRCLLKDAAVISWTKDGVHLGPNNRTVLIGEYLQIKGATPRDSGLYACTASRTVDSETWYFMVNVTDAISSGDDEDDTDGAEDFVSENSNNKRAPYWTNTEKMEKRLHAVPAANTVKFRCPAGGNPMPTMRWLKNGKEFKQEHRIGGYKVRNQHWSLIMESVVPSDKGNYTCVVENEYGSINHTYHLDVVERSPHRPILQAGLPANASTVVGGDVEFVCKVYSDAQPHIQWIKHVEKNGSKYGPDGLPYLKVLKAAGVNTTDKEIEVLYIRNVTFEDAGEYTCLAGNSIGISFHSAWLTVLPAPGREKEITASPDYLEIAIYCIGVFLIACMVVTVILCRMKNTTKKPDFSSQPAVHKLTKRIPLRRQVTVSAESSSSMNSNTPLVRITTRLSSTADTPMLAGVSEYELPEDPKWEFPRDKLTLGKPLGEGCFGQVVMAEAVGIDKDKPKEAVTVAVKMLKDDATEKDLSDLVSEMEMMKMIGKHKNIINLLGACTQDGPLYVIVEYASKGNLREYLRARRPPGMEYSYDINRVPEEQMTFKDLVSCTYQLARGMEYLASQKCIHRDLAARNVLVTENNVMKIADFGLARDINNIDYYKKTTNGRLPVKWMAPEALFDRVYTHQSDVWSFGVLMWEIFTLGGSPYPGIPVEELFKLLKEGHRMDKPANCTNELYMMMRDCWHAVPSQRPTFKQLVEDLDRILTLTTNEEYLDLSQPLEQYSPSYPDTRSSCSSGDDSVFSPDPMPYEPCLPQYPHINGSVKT
Method: as §4

HER2 = HER2 (Homo sapiens, UniProt P04626); test: HER2 kinase selectivity assay; type: biochemical; conditions: Table 4 kinase selectivity; read-out: IC50, Assay 16 HER2
HER2, sequence (P04626 23-1255, species assumed): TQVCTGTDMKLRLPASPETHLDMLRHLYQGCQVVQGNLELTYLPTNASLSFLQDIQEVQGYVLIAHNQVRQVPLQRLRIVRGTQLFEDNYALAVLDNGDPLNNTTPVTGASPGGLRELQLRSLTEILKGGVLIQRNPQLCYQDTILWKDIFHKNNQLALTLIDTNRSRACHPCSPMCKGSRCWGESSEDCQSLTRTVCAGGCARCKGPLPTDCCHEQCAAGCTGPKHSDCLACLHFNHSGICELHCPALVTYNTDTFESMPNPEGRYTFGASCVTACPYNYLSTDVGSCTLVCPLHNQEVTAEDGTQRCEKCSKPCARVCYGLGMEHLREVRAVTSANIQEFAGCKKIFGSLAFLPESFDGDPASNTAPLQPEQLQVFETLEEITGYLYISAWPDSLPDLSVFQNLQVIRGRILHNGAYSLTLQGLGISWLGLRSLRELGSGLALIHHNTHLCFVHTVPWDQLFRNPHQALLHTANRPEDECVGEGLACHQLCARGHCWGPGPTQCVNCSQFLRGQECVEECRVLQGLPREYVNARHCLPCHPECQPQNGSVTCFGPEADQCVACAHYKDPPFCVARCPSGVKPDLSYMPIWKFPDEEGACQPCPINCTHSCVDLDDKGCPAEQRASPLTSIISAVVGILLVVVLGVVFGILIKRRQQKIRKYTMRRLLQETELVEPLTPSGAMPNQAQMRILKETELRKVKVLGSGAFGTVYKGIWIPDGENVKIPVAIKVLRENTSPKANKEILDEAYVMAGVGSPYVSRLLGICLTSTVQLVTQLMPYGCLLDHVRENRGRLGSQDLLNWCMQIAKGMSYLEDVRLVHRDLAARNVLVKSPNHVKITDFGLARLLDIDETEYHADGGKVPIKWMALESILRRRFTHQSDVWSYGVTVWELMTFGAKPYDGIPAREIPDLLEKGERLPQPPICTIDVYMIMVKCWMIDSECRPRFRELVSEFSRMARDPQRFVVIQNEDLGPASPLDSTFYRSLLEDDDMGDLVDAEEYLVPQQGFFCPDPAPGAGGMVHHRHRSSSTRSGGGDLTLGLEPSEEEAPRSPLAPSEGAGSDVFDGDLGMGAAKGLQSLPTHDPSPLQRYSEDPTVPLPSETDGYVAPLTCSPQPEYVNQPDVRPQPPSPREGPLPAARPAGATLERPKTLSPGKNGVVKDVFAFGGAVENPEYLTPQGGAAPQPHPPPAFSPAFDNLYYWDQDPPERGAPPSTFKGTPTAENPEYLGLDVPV
Method: as §4

[6] = Tables 1-3, >10 or >100 = no 50% inhibition at highest dose tested, read-out: VEGF-R IC50
[7] = Tables 1-3, >10 or >100 = no 50% inhibition at highest dose tested, read-out: CDK IC50

SMILES	IC50 [1] [µM]	IC50 [4, 6] [µM]	IC50 [5, 7] [µM]	other results
Clc1cccc(Nc2cncc(-c3cncc(NCCCn4cncn4)c3)n2)c1 [Cmd 76, N-(3-chlorophenyl)-6-[5-[[3-(1H-1,2,4-triazol-1-yl)propyl]amino]-3-pyridinyl]-2-pyrazinamine]	4.94			IC50 [2]: 12.9 µM
Clc1cccc(Nc2cncc(-c3cncc(NCCCc4cccnc4)c3)n2)c1 [Cmd 72, N-(3-chlorophenyl)-6-[5-[[3-(3-pyridinyl)propyl]amino]-3-pyridinyl]-2-pyrazinamine]	5.7			IC50 (HCT-116 colon carcinoma): 4.97 µM; IC50 (MDA-MB-231): 2.57 µM; IC50 [3]: 2.58 µM
Clc1cccc(Nc2cncc(-c3cncc(NCCCn4cccn4)c3)n2)c1 [Cmd 75, N-(3-chlorophenyl)-6-[5-[[3-(1H-pyrazol-1-yl)propyl]amino]-3-pyridinyl]-2-pyrazinamine]	12.5			IC50 [2]: > 10 µM; IC50 [3]: 5.34 µM
Clc1cccc(Nc2cncc(-c3cncc(NCc4ccccc4)c3)n2)c1 [Cmd 82]		4.3	> 10	
OCCOCCOCCNc1cncc(-c2cncc(Nc3cccc(Cl)c3)n2)c1 [Cmd 78]		0.282	> 10	
Clc1cccc(Nc2cncc(-c3cncc(NCCCn4ccnc4)c3)n2)c1 [Cmd 77]		0.03	> 10	IC50 ([4]; Table 4 kinase selectivity, read-out: IC50, Assay 1 VEGF-R): 0.03 µM; IC50 ([5]; Table 4 kinase selectivity, 10 = approximate value, read-out: IC50, Assay 2 CDK1): ~10 µM; IC50 (FGF-R2): 0.221 µM; IC50 (HER2): 0.966 µM
O=C(COc1ccccc1)Nc1cncc(-c2cncc(Nc3cccc(Cl)c3)n2)c1 [Cmd 99]		> 10	> 10	
Clc1cccc(Nc2cncc(-c3cncc(NCCCc4ccncc4)c3)n2)c1 [Cmd 71, N-(3-chlorophenyl)-6-[5-[[3-(4-pyridinyl)propyl]amino]-3-pyridinyl]-2-pyrazinamine]	3.8			IC50 (HCT-116 colon carcinoma): 3.29 µM; IC50 (MDA-MB-231): 1.88 µM; IC50 [3]: 3.2 µM
Clc1cccc(Nc2cncc(-c3cncc(NCCCc4ccccc4)c3)n2)c1 [Cmd 80]		2.28	> 10	
O=C(Nc1cncc(-c2cncc(Nc3cccc(Cl)c3)n2)c1)N1CCCC1 [Cmd 74]		0.578	> 10	
COCC(=O)Nc1cncc(-c2cncc(Nc3cccc(Cl)c3)n2)c1 [Cmd 41]		0.36	> 100	
COCCNC(=O)c1cncc(-c2cncc(Nc3cccc(Cl)c3)n2)c1 [Cmd 36]		~10	> 100	
